We go through two compounds from EP0548834B1, “Stable hexahydrate of etoposide 4'-phosphate disodium salt” (Bristol-Myers Squibb Company, priority 1991, dated 1993).

Molecules are shown by their SMILES.

Series [1] is described as follows: storage stability (potency / % remaining after storage). Type of series: physicochemical.
For series [2] the following is noted: cited from earlier work.

Regarding `COc1cc(C2c3cc4c(cc3C(OC3OC5COC(C)OC5C(O)C3O)C3COC(=O)C23)OCO4)cc(OC)c1OP(=O)([O-])[O-].O.O.O.O.O.O.[Na+].[Na+]` (centres unmarked) [hexahydrate, Etoposide 4'-Phosphate Disodium salt hexahydrate], the “% Remaining” value is 99.4% in series [1] (9 weeks at 50°C, in sealed glass vials) and 100.0% in series [1] (28 days at 80% Relative Humidity, 37°C). In series [1] (28 days at 37°C), this compound returned a potency remaining of 100%. For the same compound, the potency in series [1] (storage for 63 days at 30°C) is over 99%.

As for `COc1cc([C@@H]2c3cc4c(cc3[C@@H](O[C@@H]3O[C@@H]5CO[C@@H](C)O[C@H]5[C@H](O)[C@H]3O)[C@H]3COC(=O)[C@H]23)OCO4)cc(OC)c1O` [etoposide, Etoposide], the solubility in water result in series [2] is listed as “about 0.1 mg/ml”.
